Results from US9249132B2, “Substituted bicyclic aromatic compounds as S-nitrosoglutathione reductase inhibitors” (Nivalis Therapeutics, Inc., priority 2010, dated 2016).

How the values were obtained:
[1] = system: ovalbumin (OVA)-induced asthma; assay: Mouse model of ovalbumin (OVA)-induced asthma, eosinophil infiltrate in BALF; type: in vivo; conditions: three oral doses of 10 mg/kg at 48 h, 24 h, and 1 h prior to assessment; p<0.05
Protocol: A mouse model of ovalbumin (OVA)-induced asthma was used to screen GSNOR inhibitors for efficacy against methacholine (MCh)-induced bronchoconstriction/airway hyper-responsiveness. This is a widely used and well characterized model that presents with an acute, allergic asthma phenotype with similarities to human asthma. Efficacy of GSNOR inhibitors was assessed using a protocol in which GSNOR inhibitors were administered after OVA sensitization and airway challenge, and prior to challenge with MCh. Bronchoconstriction in response to challenge with increasing doses of MCh was assessed using whole body plethysmography (Penh; Buxco). The amount of eosinophil infiltrate into the bronchoaveolar lavage fluid (BALF) was also determined as a measure of lung inflammation. […]
In vivo airway responsiveness to methacholine was measured 24 h after the last OVA challenge in conscious, freely moving, spontaneously breathing mice with whole body plethysmography using a Buxco chamber (Wilmington, N.C.). […] The degree of bronchoconstriction was expressed as enhanced pause (Penh), a calculated dimensionless value, which correlates with the measurement of airway resistance, impedance, and intrapleural pressure in the same mouse. Penh readings were taken and averaged for 4 min. after each nebulization challenge. […]

[2] = Mouse pharmacokinetic (PK) study; type: in vivo; conditions: plasma, male BALB/c mice, PO 10 mg/kg, IV 2 mg/kg
Excerpt: The mouse was used to determine the pharmacokinetics of compounds of the invention. This species is widely used to assess the bioavailability of compounds by administering both oral (PO) and intravenous (IV) test articles. Efficacy of the compounds of the invention was compared by assessing plasma exposure in male BALB/c mice either via IV or PO administration at the times of peak activity.
Compounds of the invention were reconstituted in a phosphate buffered saline (PBS)/10% Solutol (HS 15) clear solution resulting in a concentration of 0.2 mg/mL and administered to mice (2 mg/kg) as a single IV dose. Animals were dosed via the lateral tail vein. […] The plasma was transferred into labeled polypropylene tubes and frozen at −70° C. until analyzed by LC/MS/MS.
The compounds of the invention were reconstituted in 40% Propylene Glycol/40% Propylene Carbonate/20% of a 5% Sucrose clear solution resulting in a concentration of 2 mg/mL and administered to mice (10 mg/kg) as a single oral dose via gavage. […] The plasma was transferred into labeled polypropylene tubes and frozen at −70° C. until analyzed by LC/MS/MS.
Plasma samples at each timepoint were analyzed using a LC-MS/MS with a lower limit of quantification (LLOQ) of 1 ng/mL. […]
In addition to the above PK parameters, bioavailability (% F) was calculated.

O=C(O)c1ccc(-c2ccc3cc(O)ccc3c2)c(Cl)c1 [Example 1, 3-chloro-4-(6-hydroxynaphthalen-2-yl)benzoic acid]
decrease of eosinophil infiltration in BAL, of vehicle control [1]: 44%
bioavailability [2]: > 40%
